Test results: US12156880B2, “Heterocyclic RIP1 kinase inhibitors” (Rigel Pharmaceuticals, Inc., priority 2021, dated 2024)

What was measured:
RIPK1 = molecular target: T1, RIPK1 (Homo sapiens, UniProt Q13546); assay: RIPK1 ADP-Glo biochemical kinase assay; settings: read-out: RIPK1 ADP-Glo Kinase (IC50)
T1 sequence (Q13546 1-671): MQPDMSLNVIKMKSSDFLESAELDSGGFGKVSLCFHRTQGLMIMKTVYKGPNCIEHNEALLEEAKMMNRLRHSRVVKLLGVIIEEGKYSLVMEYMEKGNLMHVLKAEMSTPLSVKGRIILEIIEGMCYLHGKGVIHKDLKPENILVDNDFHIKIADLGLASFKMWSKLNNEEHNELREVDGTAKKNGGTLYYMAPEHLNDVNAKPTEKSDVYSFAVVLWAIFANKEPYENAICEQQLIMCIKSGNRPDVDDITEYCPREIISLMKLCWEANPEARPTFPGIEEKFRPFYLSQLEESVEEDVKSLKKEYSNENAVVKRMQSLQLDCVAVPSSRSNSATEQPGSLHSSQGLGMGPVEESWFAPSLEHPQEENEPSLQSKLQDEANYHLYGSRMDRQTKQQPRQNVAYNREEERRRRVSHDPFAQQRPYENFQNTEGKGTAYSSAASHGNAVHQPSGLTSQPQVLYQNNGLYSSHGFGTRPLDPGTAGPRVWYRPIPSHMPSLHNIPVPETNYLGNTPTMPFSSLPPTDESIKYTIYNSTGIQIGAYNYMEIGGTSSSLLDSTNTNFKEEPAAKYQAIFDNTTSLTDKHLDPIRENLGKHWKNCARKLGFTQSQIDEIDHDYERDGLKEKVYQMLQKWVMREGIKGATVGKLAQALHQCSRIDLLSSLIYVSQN
Procedure, shortened: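 RIPK1 at 31 ng/well in Tris pH 7.4 buffer with MgCl2, BSA, DTT and MnCl2, reacted with compounds (duplicate) for 30 min at 30 °C. ADP formed detected by ADP-Glo: 40 min stop/depletion, then 30 min detection reagent at room temperature; luminescence read.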

L929 cells = assay: L929 cell necroptosis assay (TNFa + zVAD, CellTiter-Glo recovery); type: cell-based, murine; settings: Mus musculus, L929, 18 h, TNFa 2 ng/mL + zVAD-fmk, read-out: L929-CTG-recovery, L929, TNFa + zVAD (IC50)
Procedure, shortened: (§1)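 Human U937 (50K/well, 60 uM zVAD-fmk medium, plated same day) or murine L929 (10K/well, plated 18 h, then 40 uM zVAD-fmk medium) were grown in RPMI with 10% FBS. Both were pretreated with compound for 1 h at 37 °C before TNFa at 2 ng/mL final. Viability was read by CellTiter-Glo luminescence after 18 h.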

U937 cells = assay: U937 cell necroptosis assay (TNFa + zVAD, CellTiter-Glo recovery); type: cell-based; settings: Homo sapiens, U-937, 18 h, TNFa 2 ng/mL + zVAD-fmk, read-out: U937 Zvad TNF CTG Recovery, U937, TNFa + zVAD (IC50)
Procedure, shortened: as §1

| SMILES | IC50 (RIPK1) [nM] | IC50 (L929 cells) [nM] | IC50 (U937 cells) [nM] |
| --- | --- | --- | --- |
| Cc1nc(Cc2ccnc(C(=O)N[C@H]3COc4ccc(C#CC5COC5)cc4N(C)C3=O)c2)cs1 [I-85, (S)—N-(5-methyl-7-(oxetan-3-ylethynyl)-4-oxo-2,3,4,5-tetrahydrobenzo[b][1,4]oxazepin-3-yl)-4-((2-methylthiazol-4-yl)methyl)picolinamide] | 20.6 | 252 | 15.8 |
| Cc1nc(Cc2ccnc(C(=O)N[C@H]3COc4ccc(C#CC5CCOCC5)cc4N(C)C3=O)c2)cs1 [I-90, (S)—N-(5-methyl-4-oxo-7-((tetrahydro-2H-pyran-4-yl)ethynyl)-2,3,4,5-tetrahydrobenzo[b][1,4]oxazepin-3-yl)-4-((2-methylthiazol-4-yl)methyl)picolinamide] | 20 | 20.5 | 1.9 |
| CN1C(=O)[C@@H](NC(=O)c2cc(Cc3cccc(C#N)n3)ccn2)COc2ccc(C#CC(C)(C)O)cc21 [I-93, (S)-4-((6-cyanopyridin-2-yl)methyl)-N-(7-(3-hydroxy-3-methylbut-1-yn-1-yl)-5-methyl-4-oxo-2,3,4,5-tetrahydrobenzo[b][1,4]oxazepin-3-yl)picolinamide] | 29.9 | 5670 | 52.2 |
| Cc1nc(Cc2ccnc(C(=O)N[C@H]3COc4ccc(C#CC(C)(C)C)cc4N(C)C3=O)c2)cs1 [I-96, (S)—N-(7-(3,3-dimethylbut-1-yn-1-yl)-5-methyl-4-oxo-2,3,4,5-tetrahydrobenzo[b][1,4]oxazepin-3-yl)-4-((2-methylthiazol-4-yl)methyl)picolinamide] | 396 | 242 | 84.2 |
| CN1C(=O)[C@@H](NC(=O)c2cc(Cc3cccc(F)n3)ccn2)COc2ccc(C#CC(C)(C)C)cc21 [I-97, (S)—N-(7-(3,3-dimethylbut-1-yn-1-yl)-5-methyl-4-oxo-2,3,4,5-tetrahydrobenzo[b][1,4]oxazepin-3-yl)-4-((6-fluoropyridin-2-yl)methyl)picolinamide] | 83.2 | 386 | 16.4 |
| CCc1nc(Cc2ccnc(C(=O)N[C@H]3COc4ccc(C#CC(C)(C)O)cc4N(C)C3=O)c2)cs1 [I-98, (S)-4-((2-ethylthiazol-4-yl)methyl)-N-(7-(3-hydroxy-3-methylbut-1-yn-1-yl)-5-methyl-4-oxo-2,3,4,5-tetrahydrobenzo[b][1,4]oxazepin-3-yl)picolinamide] | 24 | 111 | 15.5 |
| Cc1cccc(Cc2cnn(C(=O)N[C@H]3COc4ccc(C#CC5(O)COC5)cc4N(C)C3=O)c2)n1 [I-103, (S)—N-(7-((3-Hydroxyoxetan-3-yl)ethynyl)-5-methyl-4-oxo-2,3,4,5-tetrahydrobenzo[b][1,4]oxazepin-3-yl)-4-((6-methylpyridin-2-yl)methyl)-1H-pyrazole-1-carboxamide] | 15.4 | 1290 | 105 |
| CN1C(=O)[C@@H](NC(=O)n2cc(Cc3cccc(F)n3)cn2)COc2ccc(C#CC(C)(C)C)cc21 [I-106, (S)—N-(7-(3,3-Dimethylbut-1-yn-1-yl)-5-methyl-4-oxo-2,3,4,5-tetrahydrobenzo[b][1,4]oxazepin-3-yl)-4-((6-fluoropyridin-2-yl)methyl)-1H-pyrazole-1-carboxamide] | 22.4 | 750 | 4.3 |

More lines, main results first:

| IC50 (RIPK1) [nM] | SMILES | IC50 (L929 cells) [nM] | IC50 (U937 cells) [nM] |
| --- | --- | --- | --- |
| 19.1 | CN1C(=O)[C@@H](NC(=O)c2cc(Oc3cccnc3F)ccn2)COc2ccc(C#CC3(O)CCC3)cc21 [I-83, (S)-4-((2-fluoropyridin-3-yl)oxy)-N-(7-((1-hydroxycyclobutyl)ethynyl)-5-methyl-4-oxo-2,3,4,5-tetrahydrobenzo[b][1,4]oxazepin-3-yl)picolinamide] | 218 | 1.4 |
| 19.3 | CN1C(=O)[C@@H](NC(=O)c2cc(Cc3cccc(F)n3)ccn2)COc2ccc(C#CC3COC3)cc21 [I-84, (S)-4-((6-fluoropyridin-2-yl)methyl)-N-(5-methyl-7-(oxetan-3-ylethynyl)-4-oxo-2,3,4,5-tetrahydrobenzo[b][1,4]oxazepin-3-yl)picolinamide] | 768 | 9.4 |
| 51.3 | CN1C(=O)[C@@H](NC(=O)c2cc(Oc3cccnc3C(F)(F)F)ccn2)COc2ccc(C#CC(C)(C)O)cc21 [I-87, (S)—N-(7-(3-hydroxy-3-methylbut-1-yn-1-yl)-5-methyl-4-oxo-2,3,4,5-tetrahydrobenzo[b][1,4]oxazepin-3-yl)-4-((2-(trifluoromethyl)pyridin-3-yl)oxy)picolinamide] | 11200 | 536 |
| 56.3 | CN1C(=O)[C@@H](NC(=O)c2cc(Oc3cccnc3C(F)(F)F)ccn2)COc2ccc(C#CC3(O)COC3)cc21 [I-88, (S)—N-(7-((3-hydroxyoxetan-3-yl)ethynyl)-5-methyl-4-oxo-2,3,4,5-tetrahydrobenzo[b][1,4]oxazepin-3-yl)-4-((2-(trifluoromethyl)pyridin-3-yl)oxy)picolinamide] | 10600 | 133 |
| 101 | CN1C(=O)[C@@H](NC(=O)c2cc(Oc3cccnc3C#N)ccn2)COc2ccc(C#CC(C)(C)O)cc21 [I-91, (S)-4-((2-cyanopyridin-3-yl)oxy)-N-(7-(3-hydroxy-3-methylbut-1-yn-1-yl)-5-methyl-4-oxo-2,3,4,5-tetrahydrobenzo[b][1,4]oxazepin-3-yl)picolinamide] | 9530 | 290 |
| 20.8 | CN1C(=O)[C@@H](NC(=O)c2cc(Oc3cccnc3C#N)ccn2)COc2ccc(C#CC3(O)COC3)cc21 [I-92, (S)-4-((2-cyanopyridin-3-yl)oxy)-N-(7-((3-hydroxyoxetan-3-yl)ethynyl)-5-methyl-4-oxo-2,3,4,5-tetrahydrobenzo[b][1,4]oxazepin-3-yl)picolinamide] | 7870 | 158 |
| 18 | CN1C(=O)[C@@H](NC(=O)c2cc(Cc3cccc(C#N)n3)ccn2)COc2ccc(C#CC3(O)COC3)cc21 [I-94, (S)-4-((6-cyanopyridin-2-yl)methyl)-N-(7-((3-hydroxyoxetan-3-yl)ethynyl)-5-methyl-4-oxo-2,3,4,5-tetrahydrobenzo[b][1,4]oxazepin-3-yl)picolinamide] | 3790 | 23.7 |
| 63.4 | CN1C(=O)[C@@H](NC(=O)c2cc(Oc3cccnc3F)ccn2)COc2ccc(C#CC(C)(C)C)cc21 [I-95, (S)—N-(7-(3,3-dimethylbut-1-yn-1-yl)-5-methyl-4-oxo-2,3,4,5-tetrahydrobenzo[b][1,4]oxazepin-3-yl)-4-((2-fluoropyridin-3-yl)oxy)picolinamide] | 354 | 3.2 |
| 26.7 | CCc1nc(Cc2ccnc(C(=O)N[C@H]3COc4ccc(C#CC5(O)COC5)cc4N(C)C3=O)c2)cs1 [I-99, (S)-4-((2-ethylthiazol-4-yl)methyl)-N-(7-((3-hydroxyoxetan-3-yl)ethynyl)-5-methyl-4-oxo-2,3,4,5-tetrahydrobenzo[b][1,4]oxazepin-3-yl)picolinamide] | 225 | 26.8 |
| 28 | CN1C(=O)[C@@H](NC(=O)c2cc(Oc3cncc(F)c3)ccn2)COc2ccc(C#CC3(O)CCC3)cc21 [I-100, (S)-4-((5-fluoropyridin-3-yl)oxy)-N-(7-((1-hydroxycyclobutyl)ethynyl)-5-methyl-4-oxo-2,3,4,5-tetrahydrobenzo[b][1,4]oxazepin-3-yl)picolinamide] | 1100 | 4.1 |
| 55.2 | CN1C(=O)[C@@H](NC(=O)c2cc(Oc3cncc(F)c3)ccn2)COc2ccc(C#CC(C)(C)C)cc21 [I-101, (S)—N-(7-(3,3-dimethylbut-1-yn-1-yl)-5-methyl-4-oxo-2,3,4,5-tetrahydrobenzo[b][1,4]oxazepin-3-yl)-4-((5-fluoropyridin-3-yl)oxy)picolinamide] | 1580 | 9.1 |
| 29.5 | CN1C(=O)[C@@H](NC(=O)c2cc(Oc3cccnc3)ccn2)COc2ccc(C#CC(C)(C)C)cc21 [I-102, (S)—N-(7-(3,3-dimethylbut-1-yn-1-yl)-5-methyl-4-oxo-2,3,4,5-tetrahydrobenzo[b][1,4]oxazepin-3-yl)-4-(pyridin-3-yloxy)picolinamide] | 645 | 7.5 |
